Key:
[1] = bioavailability / absorption of nucleoside and prodrug; type: in vivo
hepatitis C virus (HCV) = settings: patients infected with hepatitis C virus

SMILES: CC(C)C(=O)OC[C@@]1(N=[N+]=[N-])O[C@@H](n2ccc(N)nc2=O)[C@H](OC(=O)C(C)C)[C@@H]1OC(=O)C(C)C.Cl [I, isobutyric acid (2R,3S,4R,5R)-5-(4-amino-2-oxo-2H-pyrimidin-1-yl)-2-azido-3,4-bis-iso-butyryloxy-tetrahydro-furan-2-ylmethyl ester; hydrochloride salt]
- absorption ([1]; in vivo): efficiently absorbed
- reversion of prodrug in plasma ([1]; plasma): revert to I in plasma
- viral load (hepatitis C virus (HCV)): decrease the viral load

SMILES: [N-]=[N+]=NC1(CO)OC(n2ccc(N)nc2=O)C(O)C1O (stereo not shown) [II, 4-Amino-1-(5-azido-3,4-dihydroxy-5-hydroxymethyl-tetrahydro-furan-2-yl)-1H-pyrimidin-2-one, reference compound]
- bioavailability ([1]; in vivo): insufficient bioavailabilty

From patent US7893037B2, “Pharmaceutical composition and process” (Roche Palo Alto LLC, priority 2007, dated 2011)
